ChEMBL document CHEMBL1201862, “PubChem BioAssay data set” (2004)
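The compound was tested at five concentrations on cells cultured in 96-well plates, with a 48-hour exposure period. Abbreviation: GI50, concentration required for 50% inhibition of growth.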 The source made the active and inactive calls. No stated cut-off is given here; in the data, active = GI50 up to about 1.1 µM and inactive = higher.

Key:
Test in all cases: growth of human tumour cells (NCI), 48 h
ACHN = system: ACHN
CCRF-CEM = system: CCRF-CEM
EKVX = system: EKVX
HCC 2998 = system: HCC 2998
HOP-62 = system: HOP-62
HT-29 = system: HT-29
IGROV-1 = system: IGROV-1
KM12 = system: KM12
LXFL 529 = system: LXFL 529
M14 = system: M14
OVCAR-4 = system: OVCAR-4
SF-268 = system: SF-268
SF-539 = system: SF-539
SN12C = system: SN12C
SNB-19 = system: SNB-19
SW-620 = system: SW-620
TK-10 = system: TK-10
U-251 = system: U-251
SK-MEL-28 = system: SK-MEL-28

Row | SMILES | GI50 (ACHN) | GI50 (CCRF-CEM) | GI50 (EKVX) | GI50 (HCC 2998) | GI50 (HOP-62) | GI50 (HT-29) | GI50 (IGROV-1) | GI50 (KM12) | GI50 (LXFL 529) | GI50 (M14) | GI50 (OVCAR-4) | GI50 (SF-268) | GI50 (SF-539) | GI50 (SN12C) | GI50 (SNB-19) | GI50 (SW-620) | GI50 (TK-10) | GI50 (U-251) | GI50 (SK-MEL-28)
1 | CNS(=O)(=O)NN(C)S(=O)(=O)c1ccccc1 | > 100 µM (inactive) | > 100 µM (inactive) | > 100 µM (inactive) | > 100 µM (inactive) | > 100 µM (inactive) | > 100 µM (inactive) | > 100 µM (inactive) | > 100 µM (inactive) | > 100 µM (inactive) | > 100 µM (inactive) | > 100 µM (inactive) | > 100 µM (inactive) | > 100 µM (inactive) | > 100 µM (inactive) | > 100 µM (inactive) | > 100 µM (inactive) | > 100 µM (inactive) | > 100 µM (inactive) | –
2 | CC(C)(C)N/N=C(\C(=O)Nc1cccc(Cl)c1)C1C(=O)Nc2ccccc2[S+]1[O-] (configuration not stated) | > 100 µM (inactive) | > 100 µM (inactive) | > 100 µM (inactive) | > 100 µM (inactive) | > 100 µM (inactive) | > 100 µM (inactive) | > 100 µM (inactive) | > 100 µM (inactive) | > 100 µM (inactive) | > 100 µM (inactive) | > 100 µM (inactive) | > 100 µM (inactive) | > 100 µM (inactive) | > 100 µM (inactive) | > 100 µM (inactive) | > 100 µM (inactive) | > 100 µM (inactive) | – | > 100 µM (inactive)
3 | O=c1/c(=C/c2ccccc2[N+](=O)[O-])sc2nnc(-c3cccnc3)n12 | > 100 µM (inactive) | 55.8 µM (inactive) | > 100 µM (inactive) | > 100 µM (inactive) | > 100 µM (inactive) | > 100 µM (inactive) | > 100 µM (inactive) | > 100 µM (inactive) | > 100 µM (inactive) | > 100 µM (inactive) | > 100 µM (inactive) | > 100 µM (inactive) | > 100 µM (inactive) | > 100 µM (inactive) | 17.7 µM (inactive) | 7.03 µM (inactive) | > 100 µM (inactive) | – | > 100 µM (inactive)
4 | CC1=Nn2c(nnc2-c2ccc(Cl)cc2)NC(C)(C)C1 | > 100 µM (inactive) | > 100 µM (inactive) | > 100 µM (inactive) | > 100 µM (inactive) | > 100 µM (inactive) | > 100 µM (inactive) | > 100 µM (inactive) | > 100 µM (inactive) | > 100 µM (inactive) | > 100 µM (inactive) | > 100 µM (inactive) | > 100 µM (inactive) | > 100 µM (inactive) | – | > 100 µM (inactive) | > 100 µM (inactive) | > 100 µM (inactive) | > 100 µM (inactive) | > 100 µM (inactive)
5 | O=c1n(-c2ccccc2)c(=O)n2n1C1C=CC2C2C(C1)C2(Cl)Cl (configuration not stated) | > 100 µM (inactive) | > 100 µM (inactive) | > 100 µM (inactive) | > 100 µM (inactive) | > 100 µM (inactive) | – | > 100 µM (inactive) | > 100 µM (inactive) | > 100 µM (inactive) | > 100 µM (inactive) | > 100 µM (inactive) | > 100 µM (inactive) | > 100 µM (inactive) | > 100 µM (inactive) | > 100 µM (inactive) | > 100 µM (inactive) | > 100 µM (inactive) | > 100 µM (inactive) | –
6 | COc1ccc2ccc3c(c2c1)CN1CCc2cc(OC)c(OC)cc2C1C3 (configuration not stated) | > 100 µM (inactive) | > 100 µM (inactive) | > 100 µM (inactive) | > 100 µM (inactive) | > 100 µM (inactive) | > 100 µM (inactive) | > 100 µM (inactive) | > 100 µM (inactive) | 66.2 µM (inactive) | > 100 µM (inactive) | > 100 µM (inactive) | – | > 100 µM (inactive) | > 100 µM (inactive) | > 100 µM (inactive) | > 100 µM (inactive) | > 100 µM (inactive) | > 100 µM (inactive) | > 100 µM (inactive)
7 | [O-][S+]1c2ccccc2N=C(c2ccc3ccccc3c2)CC1C1=CC=CCC1 (configuration not stated) | 19 µM (inactive) | 7.19 µM (inactive) | 22.7 µM (inactive) | 13.1 µM (inactive) | 19.1 µM (inactive) | 16.5 µM (inactive) | 13.2 µM (inactive) | 14.9 µM (inactive) | 14.8 µM (inactive) | 18.7 µM (inactive) | > 10 µM (inactive) | 25.8 µM (inactive) | 21.9 µM (inactive) | 17.4 µM (inactive) | > 10 µM (inactive) | 18.4 µM (inactive) | 22.2 µM (inactive) | – | 18.2 µM (inactive)
8 | C=C(C)CC(C)(c1cc2ccccc2n1C)N1CCOCC1 (configuration not stated) | 62.2 µM (inactive) | 44.5 µM (inactive) | 36.4 µM (inactive) | > 100 µM (inactive) | > 100 µM (inactive) | > 100 µM (inactive) | 75.7 µM (inactive) | 38.4 µM (inactive) | 53.7 µM (inactive) | 70 µM (inactive) | > 100 µM (inactive) | 41.5 µM (inactive) | > 100 µM (inactive) | 93.5 µM (inactive) | > 100 µM (inactive) | > 100 µM (inactive) | > 100 µM (inactive) | – | > 100 µM (inactive)
9 | c1cnc2c(c1)-n1cccc1C1(CCOCC1)NN2 | > 100 µM (inactive) | > 100 µM (inactive) | > 100 µM (inactive) | > 100 µM (inactive) | – | > 100 µM (inactive) | > 100 µM (inactive) | > 100 µM (inactive) | > 100 µM (inactive) | > 100 µM (inactive) | > 100 µM (inactive) | > 100 µM (inactive) | > 100 µM (inactive) | > 100 µM (inactive) | > 100 µM (inactive) | > 100 µM (inactive) | > 100 µM (inactive) | > 100 µM (inactive) | > 100 µM (inactive)
10 | CC12CO[C@@](C)(CC(S(=O)(=O)c3ccccc3)C1)O2 (some centres not stated) | > 100 µM (inactive) | > 100 µM (inactive) | > 100 µM (inactive) | > 100 µM (inactive) | > 100 µM (inactive) | > 100 µM (inactive) | > 100 µM (inactive) | > 100 µM (inactive) | > 100 µM (inactive) | > 100 µM (inactive) | > 100 µM (inactive) | > 100 µM (inactive) | > 100 µM (inactive) | > 100 µM (inactive) | > 100 µM (inactive) | > 100 µM (inactive) | – | > 100 µM (inactive) | > 100 µM (inactive)
11 | CSC[S+]([O-])C[C@H](CO)NC(=O)/C=C/c1c(C)[nH]c(=O)[nH]c1=O (some centres not stated) | 1.48 µM (inactive) | 1.19 µM (inactive) | 1.87 µM (inactive) | 1.45 µM (inactive) | 1.15 µM (inactive) | 1.85 µM (inactive) | 0.614 µM (active) | 1.34 µM (inactive) | 1.96 µM (inactive) | 1.16 µM (inactive) | 0.251 µM (active) | 0.277 µM (active) | 0.741 µM (active) | 0.776 µM (active) | 0.52 µM (active) | 2.21 µM (inactive) | 4.02 µM (inactive) | – | 0.767 µM (active)
